The structures appear in SMILES notation.

Data set [1] deals with Plasmodium yoelii nigeriensis. Nature of the data set: Antimalarial activity as cures against multidrug-resistant Plasmodium yoelii nigeriensis infected Swiss mice (Mus musculus) at 48 mg/kg peroral dose over 4 days. The conditions noted are these: route oral. In kind it is functional.
The subject of data set [2] is Plasmodium yoelii nigeriensis. Nature of the data set: Antimalarial activity against multidrug-resistant Plasmodium yoelii nigeriensis infected Swiss mice (Mus musculus) at 48 mg/kg peroral dose over 4 days. The conditions noted are these: route oral. In kind it is functional.
Data set [3] is described as follows: Protection of Swiss mice (Mus musculus) infected with Plasmodium yoelii nigeriensis at 48 mg/kg, perorally for 4 days. In kind it is functional. To be noted: route oral.
The test system of data set [4] is Plasmodium yoelii nigeriensis. Nature of the data set: Antimalarial activity against multidrug-resistant Plasmodium yoelii nigeriensis infected Swiss mice (Mus musculus) at 12 mg/kg peroral dose over 4 days. In kind it is functional. To be noted: route oral.
Data set [5] is described as follows: Lipophilicity, Log P of the compound. Format: physicochemical. To be noted: octanol/water.
The test system of data set [6] is Plasmodium yoelii nigeriensis. Nature of the data set: Antimalarial activity against multidrug-resistant Plasmodium yoelii nigeriensis infected Swiss mice (Mus musculus) at 6 mg/kg peroral dose over 4 days. To be noted: route oral. In kind it is functional.

`C[C@H]1[C@@H](OCCOc2ccc(-c3ccccc3)cc2)O[C@@H]2C[C@@]3(C)CC[C@H]4[C@H](C)CC[C@@H]1[C@@]24OO3`: the Activity in data set [1], in data set [2], in data set [3] and in data set [4] was 100% in each case. In addition, the logP in data set [5] is 6.85.
Take `C[C@H]1[C@H](OCCOc2ccc(-c3ccccc3)cc2)O[C@@H]2C[C@@]3(C)CC[C@H]4[C@H](C)CC[C@@H]1[C@@]24OO3`: the Activity is 100% in data set [1], 100% in data set [2], 44.33% in data set [6] and 100% in data set [4]. Moreover, the logP in data set [5] was 6.85.
In the case of `C[C@@H]1CC[C@H]2[C@@H](C)C(OCC34CC5CC(CC(C5)C3)C4)O[C@@H]3O[C@@]4(C)CC[C@@H]1[C@]32OO4` (stereo not given in full), the Activity in data set [1], in data set [2], in data set [3] and in data set [4] was 100% in each case. In data set [5], the logP came to 6.02.
As to `C[C@H]1[C@@H](OCC2c3ccccc3-c3ccccc32)O[C@@H]2C[C@@]3(C)CC[C@H]4[C@H](C)CC[C@@H]1[C@@]24OO3`, the Activity in data set [1] is on record as 100%; in data set [2], 100%; in data set [6] it was 92.95%; in data set [4] it was 100%. Moreover, the lipophilicity (logP) in data set [5] stood at 6.75.
With `C[C@H]1[C@@H](OCCC23CC4CC(CC(C4)C2)C3)O[C@@H]2O[C@@]3(C)CC[C@H]4[C@H](C)CC[C@@H]1[C@@]24OO3`, the Activity in data set [1] is 100%; in data set [2], 100%; in data set [3], 60%. The compound also returned a logP in data set [5] of 6.29.
Regarding `C[C@H]1[C@H](OCC2c3ccccc3-c3ccccc32)O[C@@H]2C[C@@]3(C)CC[C@H]4[C@H](C)CC[C@@H]1[C@@]24OO3`, the Activity in data set [1], in data set [2] and in data set [4] was 100% throughout. Also, the logP in data set [5] was determined as 6.75.
In the case of `C[C@H]1[C@H](OCc2ccc(-c3ccccc3)cc2)O[C@@H]2O[C@@]3(C)CC[C@H]4[C@H](C)CC[C@@H]1[C@@]24OO3`, the Activity in data set [1] was found to be 100%; in data set [2], 100%; in data set [6], 86.33%; in data set [4] it was 100%. The compound further gave a logP in data set [5] of 6.91.
Regarding `C[C@H]1[C@@H](OCCOc2ccccc2-c2ccccc2)O[C@@H]2C[C@@]3(C)CC[C@H]4[C@H](C)CC[C@@H]1[C@@]24OO3`, the Activity in data set [1] and in data set [2] was 100% each time. The lipophilicity (logP) in data set [5] came out at 6.85.
Regarding `C[C@H]1[C@@H](OCc2ccccc2-c2ccccc2)O[C@@H]2O[C@@]3(C)CC[C@H]4[C@H](C)CC[C@@H]1[C@@]24OO3`, the Activity in data set [1], in data set [2], in data set [3] and in data set [4] was 100% in each case. This compound gave a logP in data set [5] of 6.91.
Regarding `C[C@H]1[C@@H](OCCc2ccc(-c3ccccc3)cc2)O[C@@H]2O[C@@]3(C)CC[C@H]4[C@H](C)CC[C@@H]1[C@@]24OO3`, the Activity in data set [1], in data set [2], in data set [3] and in data set [4] was 100% throughout. In data set [5], this compound returned a logP of 7.19.
`C[C@H]1[C@H](OCCC2C3CC4CC(C3)CC2C4)O[C@@H]2O[C@@]3(C)CC[C@H]4[C@H](C)CC[C@@H]1[C@@]24OO3` (stereo not given in full): the Activity in data set [1], in data set [2] and in data set [4] was 100% each time. Besides, in data set [5], the logP is 6.15.
Regarding `C[C@@H]1CC[C@H]2[C@@H](C)C(OCCC3c4ccccc4-c4ccccc43)O[C@@H]3C[C@@]4(C)CC[C@@H]1[C@]32OO4` (stereo not given in full), the Activity in data set [1], in data set [2], in data set [3] and in data set [4] was 100% throughout. This compound yielded a lipophilicity (logP) in data set [5] of 7.1.
As to `C[C@H]1[C@@H](OCCC2C3CC4CC(C3)CC2C4)O[C@@H]2O[C@@]3(C)CC[C@H]4[C@H](C)CC[C@@H]1[C@@]24OO3` (stereo not given in full), the Activity in data set [1], in data set [2] and in data set [3] was 100% each time. The logP in data set [5] is 6.15.
With `C[C@H]1[C@H](OCCC23CC4CC(CC(C4)C2)C3)O[C@@H]2O[C@@]3(C)CC[C@H]4[C@H](C)CC[C@@H]1[C@@]24OO3`, the Activity in data set [1] worked out at 100%; in data set [2], 100%; in data set [6] it was 61.25%; in data set [4], 97.43%. Moreover, the logP in data set [5] came to 6.29.
Turning to `C[C@@H]1CC[C@H]2[C@@H](C)C(OC3C4CC5CC(C4)CC3C5)O[C@@H]3O[C@@]4(C)CC[C@@H]1[C@]32OO4` (stereo not given in full), the Activity in data set [1], in data set [2], in data set [3] and in data set [4] was 100% each time. This compound yielded a logP in data set [5] of 5.51.
Consider `C[C@H]1[C@H](OCCOc2ccccc2-c2ccccc2)O[C@@H]2C[C@@]3(C)CC[C@H]4[C@H](C)CC[C@@H]1[C@@]24OO3`, for which the Activity in data set [1] was found to be 100%; in data set [2], 100%; in data set [6], 64.44%; in data set [4], 100%. This compound gave a lipophilicity (logP) in data set [5] of 6.85.
`C[C@H]1[C@@H](OCc2ccc(-c3ccccc3)cc2)O[C@@H]2O[C@@]3(C)CC[C@H]4[C@H](C)CC[C@@H]1[C@@]24OO3`: the Activity in data set [1], in data set [2], in data set [3] and in data set [4] was 100% in each case. The compound also had a lipophilicity (logP) in data set [5] of 6.91.
Consider `CCO[C@@H]1O[C@@H]2O[C@]3(C)CC[C@H]4[C@H](C)CC[C@@H]([C@H]1C)[C@@]24OO3` [ALPHA-ARTEETHER], for which the Activity in data set [1] and in data set [2] was 100% each time. The compound also displayed a log partition coefficient (logP) in data set [5] of 3.84.
With `CCO[C@H]1O[C@@H]2O[C@@]3(C)CC[C@H]4[C@H](C)CC[C@@H]([C@H]1C)[C@@]24OO3` [ARTEMOTIL], the Activity in data set [1] and in data set [2] was 100% in each case. Besides, the log partition coefficient (logP) in data set [5] amounted to 3.84.

The values are drawn from ChEMBL document CHEMBL1137369, “New orally active derivatives of artemisinin with high efficacy against multidrug-resistant malaria in mice” (J Med Chem, 2006).
